Experimental data: ChEMBL document CHEMBL4020788, “Synthesis, SAR and molecular docking studies of benzo[d]thiazole-hydrazones as potential antibacterial and antifungal agents” (2017)
Values after ≈ are worked out from the molar mass of the structure shown. Active and inactive are the calls of the source. No cut-off for these calls is given here.

The compounds below were run on Fusarium verticillioides (assay: Antifungal activity against Fusarium moniliforme at 50 ug/ml after 48 hrs by agar well diffusion method). Details: not given.
Format: functional

Compound | diameter of the inhibition zone (DIZ)
COc1ccc(/C=N/Nc2nc3cccc(C)c3s2)c(OC)c1 | inactive

Each compound was assayed on Aspergillus niger (assay: Antifungal activity against Aspergillus niger at 50 ug/ml after 48 hrs by agar well diffusion method). Details: not given.
Format: functional

Compound | diameter of the inhibition zone (DIZ)
COc1ccc(/C=N/Nc2nc3cccc(C)c3s2)c(OC)c1 | inactive

What follows are compounds tested on Staphylococcus aureus (assay: Antibacterial activity against Staphylococcus aureus at 50 ug/ml after 24 hrs by agar well diffusion method). Details: read-out: DIZ.
Format: functional

Compound | zone of inhibition at 50 µg/mL [mm]
COc1ccc(/C=N/Nc2nc3cccc(C)c3s2)c(OC)c1 | 15

The compounds below were run on Escherichia coli (assay: Antibacterial activity against Escherichia coli at 25 ug/ml after 24 hrs by agar well diffusion method). Details: read-out: DIZ.
Format: functional

Compound | zone of inhibition at 25 µg/mL [mm]
COc1ccc(/C=N/Nc2nc3cccc(C)c3s2)c(OC)c1 | 13

These compounds were tested on Staphylococcus aureus (assay: Antibacterial activity against methicillin resistant Staphylococcus aureus MRSA090 at 25 ug/ml after 24 hrs by agar well diffusion method). Details: MRSA090, 24 h, read-out: DIZ.
Format: functional

Compound | zone of inhibition at 25 µg/mL [mm]
COc1ccc(/C=N/Nc2nc3cccc(C)c3s2)c(OC)c1 | 15

Each compound was assayed on Escherichia coli (assay: Antibacterial activity against Escherichia coli at 50 ug/ml after 24 hrs by agar well diffusion method). Details: read-out: DIZ.
Format: functional

Compound | zone of inhibition at 50 µg/mL [mm]
COc1ccc(/C=N/Nc2nc3cccc(C)c3s2)c(OC)c1 | 18

What follows are compounds tested on Fusarium oxysporum (assay: Antifungal activity against Fusarium oxysporum at 25 ug/ml after 48 hrs by agar well diffusion method). Details: read-out: DIZ.
Format: functional

Compound | zone of inhibition at 25 µg/mL [mm]
COc1ccc(/C=N/Nc2nc3cccc(C)c3s2)c(OC)c1 | 7

The compounds below were run on Staphylococcus aureus (assay: Antibacterial activity against methicillin resistant Staphylococcus aureus MRSA090 at 75 ug/ml after 24 hrs by agar well diffusion method). Details: MRSA090, 24 h, read-out: DIZ.
Format: functional

Compound | zone of inhibition at 75 µg/mL [mm]
COc1ccc(/C=N/Nc2nc3cccc(C)c3s2)c(OC)c1 | 22

Each compound was assayed on Klebsiella pneumoniae (assay: Antibacterial activity against Klebsiella pneumoniae at 25 ug/ml after 24 hrs by agar well diffusion method). Details: read-out: DIZ.
Format: functional

Compound | zone of inhibition at 25 µg/mL [mm]
COc1ccc(/C=N/Nc2nc3cccc(C)c3s2)c(OC)c1 | 4

What follows are compounds tested on Fusarium oxysporum (assay: Antifungal activity against Fusarium oxysporum at 75 ug/ml after 48 hrs by agar well diffusion method). Details: read-out: DIZ.
Format: functional

Compound | zone of inhibition at 75 µg/mL [mm]
COc1ccc(/C=N/Nc2nc3cccc(C)c3s2)c(OC)c1 | 14

These compounds were tested on Fusarium verticillioides (assay: Antifungal activity against Fusarium moniliforme at 75 ug/ml after 48 hrs by agar well diffusion method). Details: not given.
Format: functional

Compound | diameter of the inhibition zone (DIZ)
COc1ccc(/C=N/Nc2nc3cccc(C)c3s2)c(OC)c1 | inactive

Each compound was assayed on Klebsiella pneumoniae (assay: Antibacterial activity against Klebsiella pneumoniae at 100 ug/ml after 24 hrs by agar well diffusion method). Details: read-out: DIZ.
Format: functional

Compound | zone of inhibition at 100 µg/mL [mm]
COc1ccc(/C=N/Nc2nc3cccc(C)c3s2)c(OC)c1 | 15

Each compound was assayed on Fusarium oxysporum (assay: Antifungal activity against Fusarium oxysporum at 50 ug/ml after 48 hrs by agar well diffusion method). Details: read-out: DIZ.
Format: functional

Compound | zone of inhibition at 50 µg/mL [mm]
COc1ccc(/C=N/Nc2nc3cccc(C)c3s2)c(OC)c1 | 12

What follows are compounds tested on Aspergillus niger (assay: Antifungal activity against Aspergillus niger at 100 ug/ml after 48 hrs by agar well diffusion method). Details: read-out: DIZ.
Format: functional

Compound | zone of inhibition at 100 µg/mL [mm]
COc1ccc(/C=N/Nc2nc3cccc(C)c3s2)c(OC)c1 | 4

What follows are compounds tested on Bacillus subtilis (assay: Antibacterial activity against Bacillus subtilis incubated for overnight by microdilution method). Details: not given.
Format: functional

Compound | MIC [µg/mL]
COc1ccc(/C=N/Nc2nc3cccc(C)c3s2)c(OC)c1 | 24 (≈ 73.3 µM)

Each compound was assayed on Staphylococcus aureus (assay: Antibacterial activity against Staphylococcus aureus at 100 ug/ml after 24 hrs by agar well diffusion method). Details: read-out: DIZ.
Format: functional

Compound | zone of inhibition at 100 µg/mL [mm]
COc1ccc(/C=N/Nc2nc3cccc(C)c3s2)c(OC)c1 | 28

Each compound was assayed on Fusarium verticillioides (assay: Antifungal activity against Fusarium moniliforme at 100 ug/ml after 48 hrs by agar well diffusion method). Details: not given.
Format: functional

Compound | diameter of the inhibition zone (DIZ)
COc1ccc(/C=N/Nc2nc3cccc(C)c3s2)c(OC)c1 | inactive

The compounds below were run on Escherichia coli (assay: Antibacterial activity against Escherichia coli at 100 ug/ml after 24 hrs by agar well diffusion method). Details: read-out: DIZ.
Format: functional

Compound | zone of inhibition at 100 µg/mL [mm]
COc1ccc(/C=N/Nc2nc3cccc(C)c3s2)c(OC)c1 | 23

Each compound was assayed on Bacillus subtilis (assay: Antibacterial activity against Bacillus subtilis at 100 ug/ml after 24 hrs by agar well diffusion method). Details: read-out: DIZ.
Format: functional

Compound | zone of inhibition at 100 µg/mL [mm]
COc1ccc(/C=N/Nc2nc3cccc(C)c3s2)c(OC)c1 | 29

Each compound was assayed on Staphylococcus aureus (assay: Antibacterial activity against methicillin resistant Staphylococcus aureus MRSA090 at 50 ug/ml after 24 hrs by agar well diffusion method). Details: MRSA090, 24 h, read-out: DIZ.
Format: functional

Compound | zone of inhibition at 50 µg/mL [mm]
COc1ccc(/C=N/Nc2nc3cccc(C)c3s2)c(OC)c1 | 18

What follows are compounds tested on Bacillus subtilis (assay: Antibacterial activity against Bacillus subtilis at 25 ug/ml after 24 hrs by agar well diffusion method). Details: read-out: DIZ.
Format: functional

Compound | zone of inhibition at 25 µg/mL [mm]
COc1ccc(/C=N/Nc2nc3cccc(C)c3s2)c(OC)c1 | 13

Each compound was assayed on Klebsiella pneumoniae (assay: Antibacterial activity against Klebsiella pneumoniae at 50 ug/ml after 24 hrs by agar well diffusion method). Details: read-out: DIZ.
Format: functional

Compound | zone of inhibition at 50 µg/mL [mm]
COc1ccc(/C=N/Nc2nc3cccc(C)c3s2)c(OC)c1 | 9

Each compound was assayed on Aspergillus niger (assay: Antifungal activity against Aspergillus niger at 25 ug/ml after 48 hrs by agar well diffusion method). Details: not given.
Format: functional

Compound | diameter of the inhibition zone (DIZ)
COc1ccc(/C=N/Nc2nc3cccc(C)c3s2)c(OC)c1 | inactive

Each compound was assayed on Klebsiella pneumoniae (assay: Antibacterial activity against Klebsiella pneumoniae incubated for overnight by microdilution method). Details: not given.
Format: functional

Compound | MIC [µg/mL]
COc1ccc(/C=N/Nc2nc3cccc(C)c3s2)c(OC)c1 | 22 (≈ 67.2 µM)

What follows are compounds tested on Staphylococcus aureus (assay: Antibacterial activity against methicillin resistant Staphylococcus aureus MRSA090 at 100 ug/ml after 24 hrs by agar well diffusion method). Details: MRSA090, 24 h, read-out: DIZ.
Format: functional

Compound | zone of inhibition at 100 µg/mL [mm]
COc1ccc(/C=N/Nc2nc3cccc(C)c3s2)c(OC)c1 | 27

These compounds were tested on Escherichia coli (assay: Antibacterial activity against Escherichia coli at 75 ug/ml after 24 hrs by agar well diffusion method). Details: read-out: DIZ.
Format: functional

Compound | zone of inhibition at 75 µg/mL [mm]
COc1ccc(/C=N/Nc2nc3cccc(C)c3s2)c(OC)c1 | 24

The compounds below were run on Bacillus subtilis (assay: Antibacterial activity against Bacillus subtilis at 50 ug/ml after 24 hrs by agar well diffusion method). Details: read-out: DIZ.
Format: functional

Compound | zone of inhibition at 50 µg/mL [mm]
COc1ccc(/C=N/Nc2nc3cccc(C)c3s2)c(OC)c1 | 19

What follows are compounds tested on Escherichia coli (assay: Antibacterial activity against Escherichia coli incubated for overnight by microdilution method). Details: not given.
Format: functional

Compound | MIC [µg/mL]
COc1ccc(/C=N/Nc2nc3cccc(C)c3s2)c(OC)c1 | 25 (≈ 76.4 µM)

The compounds below were run on Staphylococcus aureus (assay: Antibacterial activity against methicillin resistant Staphylococcus aureus MRSA090 incubated for overnight by microdilution method). Details: not given.
Format: functional

Compound | MIC [µg/mL]
COc1ccc(/C=N/Nc2nc3cccc(C)c3s2)c(OC)c1 | 22 (≈ 67.2 µM)

What follows are compounds tested on Staphylococcus aureus (assay: Antibacterial activity against Staphylococcus aureus incubated for overnight by microdilution method). Details: not given.
Format: functional

Compound | MIC [µg/mL]
COc1ccc(/C=N/Nc2nc3cccc(C)c3s2)c(OC)c1 | 26 (≈ 79.4 µM)

What follows are compounds tested on Bacillus subtilis (assay: Antibacterial activity against Bacillus subtilis at 75 ug/ml after 24 hrs by agar well diffusion method). Details: read-out: DIZ.
Format: functional

Compound | zone of inhibition at 75 µg/mL [mm]
COc1ccc(/C=N/Nc2nc3cccc(C)c3s2)c(OC)c1 | 25

The compounds below were run on Fusarium oxysporum (assay: Antifungal activity against Fusarium oxysporum at 100 ug/ml after 48 hrs by agar well diffusion method). Details: read-out: DIZ.
Format: functional

Compound | zone of inhibition at 100 µg/mL [mm]
COc1ccc(/C=N/Nc2nc3cccc(C)c3s2)c(OC)c1 | 17

What follows are compounds tested on Fusarium verticillioides (assay: Antifungal activity against Fusarium moniliforme at 25 ug/ml after 48 hrs by agar well diffusion method). Details: not given.
Format: functional

Compound | diameter of the inhibition zone (DIZ)
COc1ccc(/C=N/Nc2nc3cccc(C)c3s2)c(OC)c1 | inactive

Each compound was assayed on Aspergillus niger (assay: Antifungal activity against Aspergillus niger at 75 ug/ml after 48 hrs by agar well diffusion method). Details: not given.
Format: functional

Compound | diameter of the inhibition zone (DIZ)
COc1ccc(/C=N/Nc2nc3cccc(C)c3s2)c(OC)c1 | inactive

Each compound was assayed on Staphylococcus aureus (assay: Antibacterial activity against Staphylococcus aureus at 25 ug/ml after 24 hrs by agar well diffusion method). Details: read-out: DIZ.
Format: functional

Compound | zone of inhibition at 25 µg/mL [mm]
COc1ccc(/C=N/Nc2nc3cccc(C)c3s2)c(OC)c1 | 10

These compounds were tested on Staphylococcus aureus (assay: Antibacterial activity against Staphylococcus aureus at 75 ug/ml after 24 hrs by agar well diffusion method). Details: read-out: DIZ.
Format: functional

Compound | zone of inhibition at 75 µg/mL [mm]
COc1ccc(/C=N/Nc2nc3cccc(C)c3s2)c(OC)c1 | 20

These compounds were tested on Klebsiella pneumoniae (assay: Antibacterial activity against Klebsiella pneumoniae at 75 ug/ml after 24 hrs by agar well diffusion method). Details: read-out: DIZ.
Format: functional

Compound | zone of inhibition at 75 µg/mL [mm]
COc1ccc(/C=N/Nc2nc3cccc(C)c3s2)c(OC)c1 | 12
